The subject of one series is MDA-MB-231. Description: Antiproliferative activity against human MDA-MB-231 cells incubated for 72 hrs measured by MTT assay. The format is functional, cell-based. Particulars: MDA-MB-231, 72 h. In general terms: Tetrazolium assays rely on reduction of a dye to a coloured formazan, in cell work by metabolically active cells.
The next series relates to PC-3. Description: Antiproliferative activity against human PC-3 cells incubated for 72 hrs measured by MTT assay. Format: functional, cell-based. Particulars: PC-3, 72 h.
The test system of the next series is HCT-116. Description: Antiproliferative activity against human HCT-116 cells incubated for 72 hrs measured by MTT assay. Format: functional, cell-based. Particulars: HCT-116, 72 h.
The subject of another series is A549. In words: Antiproliferative activity against human A549 cells incubated for 72 hrs measured by MTT assay. Format: functional, cell-based. The following applies: A549, 72 h.
The test system of another series is HeLa. Description: Antiproliferative activity against human HeLa cells incubated for 72 hrs measured by MTT assay. The format is functional, cell-based.
Series [1] has as its system A-375. Description: Antiproliferative activity against human A-375 cells incubated for 72 hrs measured by MTT assay. The format is functional, cell-based. The following applies: A-375, 72 h.
The nature of series [2]: Cytotoxicity against human BEAS-2B cells incubated for 72 hrs measured by MTT assay. Format: toxicity, cell-based.
The test system of another series is HepG2. Description: Antiproliferative activity against human HepG2 cells incubated for 72 hrs measured by MTT assay. Format: functional, cell-based. Particulars: HepG2, 72 h.
The test system of another series is MIA PaCa-2. Description: Antiproliferative activity against human MIA PaCa-2 cells incubated for 72 hrs measured by MTT assay. The following applies: MIA PaCa-2, 72 h. Format: functional, cell-based.
The subject of series [3] is A-375. Description: Induction of apoptosis in human A-375 cells assessed as early apoptotic cells at 1 uM measured by annexin V/PI based flow cytometric analysis (reference value: 9.78%). Format: functional. In general terms: A flow cytometer gives signals particle by particle.
Another series concerns the target T1, Aurora kinase C (Homo sapiens, UniProt Q9UQB9).
T1 sequence (Q9UQB9 whole entry): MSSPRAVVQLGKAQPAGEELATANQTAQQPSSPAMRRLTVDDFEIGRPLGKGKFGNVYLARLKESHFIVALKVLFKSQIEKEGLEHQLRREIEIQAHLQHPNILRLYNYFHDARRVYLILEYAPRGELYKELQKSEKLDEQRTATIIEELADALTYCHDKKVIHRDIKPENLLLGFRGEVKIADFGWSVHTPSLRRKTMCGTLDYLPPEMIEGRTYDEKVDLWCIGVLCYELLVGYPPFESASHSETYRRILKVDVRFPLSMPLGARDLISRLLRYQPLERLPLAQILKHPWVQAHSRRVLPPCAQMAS
Description: Inhibition of Aurora C (unknown origin) incubated for 1 hr by microplate reader analysis.

Series [4] relates to A-375. In words: Effect cycle arrest in human A-375 cells assessed as accumulation of cells in G2/M phase at 2 uM measured by flow cytometric analysis (reference value: 26.76%). The format is functional.
Series [5] has as its system A-375. Description: Induction of apoptosis in human A-375 cells assessed as late apoptotic cells at 1 uM measured by annexin V/PI based flow cytometric analysis (reference value: 1.07%). Format: functional.
Series [6] deals with A-375. Description: Induction of apoptosis in human A-375 cells assessed as apoptotic cells at 2 uM measured by annexin V/PI based flow cytometric analysis (reference value: 10.8%). The format is functional.
The subject of series [7] is A-375. Description: Effect on mitotic progression in human A-375 cells assessed as mitotic index at 0.5 uM measured by flow cytometric analysis (reference value: 3.22%). The format is functional.
The target of the next series is Aurora kinase B (Homo sapiens, UniProt Q96GD4). In words: Inhibition of Aurora B (unknown origin) incubated for 1 hr by microplate reader analysis.
In series [8] the test system is A-375. In words: Induction of apoptosis in human A-375 cells assessed as late apoptotic cells at 2 uM measured by annexin V/PI based flow cytometric analysis (reference value: 1.07%). Format: functional.
Series [9] relates to A-375. Description: Induction of apoptosis in human A-375 cells assessed as apoptotic cells at 1 uM measured by annexin V/PI based flow cytometric analysis (reference value: 10.8%). Format: functional.
Series [10] relates to A-375. In words: Effect on mitotic progression in human A-375 cells assessed as mitotic index at 2 uM measured by flow cytometric analysis (reference value: 3.22%). The format is functional.
Series [11] has as its system A-375. Description: Induction of apoptosis in human A-375 cells assessed as apoptotic cells at 0.5 uM measured by annexin V/PI based flow cytometric analysis (reference value: 10.8%). Format: functional.
In series [12] the test system is A-375. In words: Effect on mitotic progression in human A-375 cells assessed as mitotic index at 1 uM measured by flow cytometric analysis (reference value: 3.22%). Format: functional.
Series [13] relates to A-375. In words: Effect cycle arrest in human A-375 cells assessed as accumulation of cells in G2/M phase at 0.5 uM measured by flow cytometric analysis (reference value: 26.76%). The format is functional.
Series [14] has as its system A-375. In words: Induction of apoptosis in human A-375 cells assessed as late apoptotic cells at 0.5 uM measured by annexin V/PI based flow cytometric analysis (reference value: 1.07%). Format: functional.
Series [15] deals with A-375. In words: Induction of apoptosis in human A-375 cells assessed as early apoptotic cells at 2 uM measured by annexin V/PI based flow cytometric analysis (reference value: 9.78%). The format is functional.
Series [16] has as its system A-375. Description: Effect cycle arrest in human A-375 cells assessed as accumulation of cells in G2/M phase at 1 uM measured by flow cytometric analysis (reference value: 26.76%). Format: functional.
The target of a further series is T2, Aurora kinase A (Homo sapiens, UniProt O14965).
T2 sequence (O14965 whole entry): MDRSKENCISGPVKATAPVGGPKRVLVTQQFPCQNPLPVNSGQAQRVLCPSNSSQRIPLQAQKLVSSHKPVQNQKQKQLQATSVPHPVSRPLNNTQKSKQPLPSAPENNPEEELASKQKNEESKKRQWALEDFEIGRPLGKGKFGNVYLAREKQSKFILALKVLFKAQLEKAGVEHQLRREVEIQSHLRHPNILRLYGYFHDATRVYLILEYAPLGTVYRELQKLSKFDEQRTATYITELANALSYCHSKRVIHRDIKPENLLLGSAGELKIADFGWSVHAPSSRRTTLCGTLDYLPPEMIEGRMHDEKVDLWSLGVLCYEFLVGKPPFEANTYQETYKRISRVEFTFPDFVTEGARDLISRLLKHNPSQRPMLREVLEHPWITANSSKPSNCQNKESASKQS
In words: Inhibition of Aurora A (unknown origin) incubated for 1 hr by microplate reader analysis.

Series [17] deals with T3, Aurora kinase A (Homo sapiens) (UniProt O14965).
T3 sequence (whole entry): T2 sequence (O14965 whole entry)
Description: Inhibition of Aurora A (unknown origin) assessed as downregulation of kinase phosphorylation at 0.5 to 2 uM by Western blot analysis. The following applies: dose 0.5-2 µM.

Series [18] has as its system A-375. In words: Induction of apoptosis in human A-375 cells assessed as early apoptotic cells at 0.5 uM measured by annexin V/PI based flow cytometric analysis (reference value: 9.78%). The format is functional.

SMILES strings stand for the structures. Active and inactive are the calls of the source. No cut-off for these calls is given here.

Sequence of Aurora kinase B (Q96GD4 whole entry): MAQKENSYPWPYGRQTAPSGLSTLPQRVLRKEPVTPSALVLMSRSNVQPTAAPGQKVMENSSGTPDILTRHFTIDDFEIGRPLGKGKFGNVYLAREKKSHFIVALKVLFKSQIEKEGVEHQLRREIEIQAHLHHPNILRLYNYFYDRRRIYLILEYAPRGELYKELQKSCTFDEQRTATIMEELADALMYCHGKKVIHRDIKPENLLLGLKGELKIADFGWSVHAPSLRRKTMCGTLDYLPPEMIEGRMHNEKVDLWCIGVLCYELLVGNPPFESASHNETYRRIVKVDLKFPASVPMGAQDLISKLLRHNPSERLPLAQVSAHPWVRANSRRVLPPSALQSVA

Regarding `CCOc1ccc([C@@H]2[C@@H]([N+](=O)[O-])[C@@H](c3ccccc3)N[C@H]2C(=O)OC)cc1`, the half-inhibitory concentration (IC50) in the series on MDA-MB-231, with PC-3, in the series with HCT-116, in the series on A549, in the series on HeLa and in the series with A-375 [1] was over 100 µM throughout. Further, the IC50 with HepG2 and in the series with MIA PaCa-2 was over 100 µM each time. The same molecule yielded a half-inhibitory concentration (IC50) at 72 h in series [2] of over 100 µM.

For `CCOc1ccc([C@@H]2[C@@](C)([N+](=O)[O-])[C@@H](c3ccccc3)N[C@@]2(C)C(=O)OC)cc1`, the 50% inhibitory concentration (IC50) with MDA-MB-231 was 34.7 µM; in the series with PC-3 it was 32.5 µM; in the series with HCT-116 it was 74.7 µM; in the series with A549, 49.2 µM; with HeLa, 82.8 µM; with A-375 [1] it was 26.8 µM. Also, the IC50 with HepG2 and with MIA PaCa-2 was over 100 µM in each case. In addition, the IC50 at 72 h in series [2] was over 100 µM.

In the case of `CCOc1ccc([C@H]2[C@H](C(=O)OC)N[C@H](c3ccccc3)[C@]2(C)[N+](=O)[O-])cc1`, the 50% inhibitory concentration (IC50) in the series on MDA-MB-231, in the series on PC-3, in the series on HCT-116, with A549, in the series with HeLa and in the series with A-375 [1] was over 100 µM in each case. For the same molecule, the half-maximal inhibitory concentration (IC50) with HepG2 and with MIA PaCa-2 was over 100 µM throughout. The molecule also returned a half-maximal inhibitory concentration (IC50) at 72 h in series [2] of over 100 µM.

Take `CCOc1ccc([C@H]2[C@H]([N+](=O)[O-])[C@H](c3ccccc3)N[C@@H]2C(=O)OC)cc1`: the IC50 in the series on MDA-MB-231, with PC-3, in the series on HCT-116, in the series with A549, in the series on HeLa and with A-375 [1] was over 100 µM in each case. For the same molecule, the IC50 in the series on HepG2 and in the series with MIA PaCa-2 was over 100 µM throughout. The same molecule registered a half-maximal inhibitory concentration (IC50) at 72 h in series [2] of over 100 µM.

Regarding `CCOc1ccc([C@@H]2[C@@H]([N+](=O)[O-])[C@@H](c3ccccc3)N[C@@]2(C)C(=O)OC)cc1`, the half-inhibitory concentration (IC50) in the series with MDA-MB-231, in the series on PC-3, in the series on HCT-116, in the series on A549, in the series with HeLa and in the series on A-375 [1] was over 100 µM throughout. For the same molecule, the half-maximal inhibitory concentration (IC50) in the series with HepG2 and in the series on MIA PaCa-2 was over 100 µM each time. The half-inhibitory concentration (IC50) at 72 h in series [2] is over 100 µM.

`CCOc1ccc([C@H]2[C@](C)([N+](=O)[O-])[C@H](c3ccccc3)N[C@]2(C)C(=O)OC)cc1`: the Activity in the series with A-375 [3] came to 20.4%; in the series on A-375 [4], 68.69%; with A-375 [5] it was 14.6%; with A-375 [6] it was 37.6%; in the series with A-375 [7] it was 6.24%; with A-375 [8], 17.8%. Further, the Activity with A-375 [9] is listed as 35%; in the series with A-375 [10], 18.51%; with A-375 [11], 22.7%; in the series with A-375 [12] it was 10.82%; in the series with A-375 [13], 32.73%; in the series with A-375 [14], 9.23%. Further, the results for the Activity with A-375 [15], in the series with A-375 [16] and with A-375 [18] were 19.8%, 54.46% and 13.5%, respectively. For the same molecule, the IC50 result is “Not Active” against Aurora kinase C; 0.43 µM with MDA-MB-231; 0.4 µM with PC-3; 0.73 µM with HCT-116; “Not Active” against Aurora kinase B; 0.51 µM in the series on A549. In addition, the IC50 in the series on HeLa turned out to be 0.96 µM; in the series on A-375 [1], 0.24 µM; in the series on HepG2, 1.67 µM; in the series with MIA PaCa-2 it was 1.07 µM; on Aurora kinase A, 0.284 µM. The 50% inhibitory concentration (IC50) at 72 h in series [2] is over 100 µM. Also, the inhibition entry in series [17] is “Active”.

Regarding `CCOc1ccc([C@@H]2[C@@H](C(=O)OC)N[C@@H](c3ccccc3)[C@@]2(C)[N+](=O)[O-])cc1`, the concentration for half-maximal inhibition (IC50) in the series on MDA-MB-231 was found to be 16.8 µM; with PC-3, 14 µM; in the series with HCT-116, 12.4 µM; with A549, 11.5 µM; in the series on HeLa, 16.5 µM; with A-375 [1] it was 7.42 µM. Besides, the half-maximal inhibitory concentration (IC50) in the series on HepG2 was 29 µM; with MIA PaCa-2, 21.4 µM. Besides, the IC50 at 72 h in [2] was over 100 µM.

For the molecule `CCOc1ccc([C@H]2[C@H]([N+](=O)[O-])[C@H](c3ccccc3)N[C@]2(C)C(=O)OC)cc1`, the concentration for half-maximal inhibition (IC50) with MDA-MB-231, in the series with PC-3, in the series on HCT-116, in the series with A549, in the series on HeLa and with A-375 [1] was over 100 µM in each case. The half-maximal inhibitory concentration (IC50) with HepG2 and in the series on MIA PaCa-2 was over 100 µM throughout. This molecule also showed an IC50 at 72 h in series [2] of over 100 µM.

Broadly, the IC50 is the concentration at which inhibition is half-maximal. Lower therefore signals higher potency.
